Read-outs that look alike come from different tables or passages of the source. *1 amine or outer side, *2 acyl side, *3 side chain or, on linkers, in order; H or OH if unused. Where a SMILES comes first, the peptide text is derived from it. Bridges are numbered along the chain shown (N, C = ends). [ ]: non-standard residue; d: D form. hPhe(3-Cl-4-CF3) = N[C@@H](CCc1ccc(C(F)(F)F)c(Cl)c1)C(=O)O; X4 = CCCN([C@@H](COCCC(C)C)C(=O)[*:2])[*:1]; NMeGly(cPent) = CN[C@H](C(=O)O)C1CCCC1; NMeD = CN[C@@H](CC(=O)O)C(=O)O; NMeL = CN[C@@H](CC(C)C)C(=O)O; NMeA = CN[C@@H](C)C(=O)O; Aze = O=C(O)[C@@H]1CCN1; Ac4c = NC1(C(=O)O)CCC1; Sar = CNCC(=O)O
How the values were obtained:
[1] = target: GDP-bound NRAS wild-type protein (Homo sapiens, UniProt P01111); test: Binding to NRAS by surface plasmon resonance (SPR), Single Cycle Kinetics; settings: for NRAS/KRAS (ratio of KD value for GDP-bound NRAS wild-type protein to KD value for KRAS): KD ratio class
GDP-bound NRAS wild-type protein, sequence (P01111 whole entry): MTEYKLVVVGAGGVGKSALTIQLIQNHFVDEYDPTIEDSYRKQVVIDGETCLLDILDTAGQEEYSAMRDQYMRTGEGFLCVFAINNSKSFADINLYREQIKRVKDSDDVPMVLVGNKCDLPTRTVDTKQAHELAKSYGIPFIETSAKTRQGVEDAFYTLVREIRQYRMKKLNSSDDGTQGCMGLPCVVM

[2] = target: GDP-bound HRAS wild-type protein (Homo sapiens, UniProt P01112); test: Binding to HRAS by surface plasmon resonance (SPR), Single Cycle Kinetics; settings: for HRAS/KRAS (ratio of KD value for GDP-bound HRAS wild-type protein to KD value for KRAS): KD ratio class
GDP-bound HRAS wild-type protein, sequence (P01112 whole entry): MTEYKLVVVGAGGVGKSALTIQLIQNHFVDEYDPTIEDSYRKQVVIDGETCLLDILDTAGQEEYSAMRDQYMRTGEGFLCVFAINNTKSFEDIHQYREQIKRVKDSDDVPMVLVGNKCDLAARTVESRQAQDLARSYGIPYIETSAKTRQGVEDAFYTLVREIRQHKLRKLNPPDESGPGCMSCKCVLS

[3] = target: GDP-bound KRAS wild-type protein (Homo sapiens, UniProt P01116); test: Binding to KRAS by surface plasmon resonance (SPR), Single Cycle Kinetics
[4] = system: human lung cancer strain NCI-H441
[5] = SPR, Single Cycle Kinetics, GDP-bound KRAS wild-type protein
[6] = read-out: NCI-H441 IC50, NCI-H441 cells, 4 days, CellTiter-Glo
[7] = GDP-bound KRAS wild-type protein, SPR Single Cycle Kinetics, 1:1 binding model
[8] = KD ratio, GDP-bound NRAS wild-type vs GDP-bound KRAS wild-type, SPR
[9] = KD ratio, GDP-bound HRAS wild-type vs GDP-bound KRAS wild-type, SPR
[10] = SPR Single Cycle Kinetics, GDP-bound KRAS wild-type protein, 1:1 binding model
[11] = SPR, GDP-bound wild-type proteins

CCO[C@@H]1C[C@H]2C(=O)NC3(CCC3)C(=O)N(C)[C@@H](C(CC)CC)C(=O)N(C)C(C(C)C)CC(=O)N(C)[C@@H](CC)C(=O)N[C@@H]([C@@H](C)CC)C(=O)N(C)CC(=O)N(C)[C@H]3C/C=C\CCN(C3=O)[C@@H](Cc3ccc(C(F)(F)F)cc3)C(=O)N(C)CC(=O)N[C@@H](CCc3cc(F)c(C(F)(F)F)c(F)c3)C(=O)N2C1 (some centres unmarked) [PP1589]
NRAS/KRAS (ratio of KD value for GDP-bound NRAS wild-type protein to KD value for KRAS) ([1]; SPR): A (a compound having 10 or more and less than 20 is denoted as A) | HRAS/KRAS (ratio of KD value for GDP-bound HRAS wild-type protein to KD value for KRAS) ([2]; SPR): A (a compound having 10 or more and less than 20 is denoted as A) | Kd [3, 5]: 1.8 nM | IC50 [4, 6]: 86.6 nM

CC[C@H](C)[C@@H]1NC(=O)[C@H](CC(C)C)N(C)C(=O)C[C@@H](C(=O)N(C)C)N(C)C(=O)[C@H](C2CCCC2)N(C)C(=O)C2(CCCC2)NC(=O)[C@@H]2CCCN2C(=O)[C@H](CCc2ccc(C(F)(F)F)c(Cl)c2)NC(=O)CN(C)C(=O)[C@H](Cc2ccc(C(F)(F)F)cc2)N2C/C=C\COC[C@@H](C2=O)N(C)C(=O)CN(C)C1=O [PP0626]
NRAS/KRAS (ratio of KD value with respect to GDP-bound NRAS wild-type protein to KD value with respect to KRAS) ([1]; SPR): C (A compound having a KD ratio of 0.1 or more and less than 3 is denoted as C) | HRAS/KRAS (ratio of KD value with respect to GDP-bound HRAS wild-type protein to KD value with respect to KRAS) ([2]; SPR): C (A compound having a KD ratio of 0.1 or more and less than 3 is denoted as C) | Kd [3, 7]: 7.1 nM | IC50 [4]: 158 nM

CC[C@H](C)[C@@H]1NC(=O)[C@H](CC2CC2)N(C)C(=O)C[C@@H](C(=O)N(C)C)N(C)C(=O)[C@H](C2CCCC2)N(C)C(=O)C2(CCC2)NC(=O)[C@@H]2C[C@@H](C(F)(F)F)CN2C(=O)[C@H](CCc2cc(F)c(C(F)(F)F)c(F)c2)NC(=O)CN(C)C(=O)[C@H](Cc2ccc(C(F)(F)F)cc2)N2CC/C=C\C[C@@H](C2=O)N(C)C(=O)CN(C)C1=O [PP1498]
NRAS/KRAS (ratio of KD value for GDP-bound NRAS wild-type protein to KD value for KRAS) ([1]; SPR): A (a compound having 10 or more and less than 20 is denoted as A) | HRAS/KRAS (ratio of KD value for GDP-bound HRAS wild-type protein to KD value for KRAS) ([2]; SPR): A (a compound having 10 or more and less than 20 is denoted as A) | Kd [3, 5]: 0.069 nM | IC50 [4, 6]: 10.3 nM

CCOC[C@H]1C(=O)N[C@@H]([C@@H](C)CC)C(=O)N(C)CC(=O)N(C)[C@H]2C/C=C\CCN(C2=O)[C@@H](Cc2ccc(C(F)(F)F)cc2)C(=O)N(C)CC(=O)N[C@@H](CCc2cc(F)c(C(F)(F)F)c(F)c2)C(=O)N2C[C@H](OCC)C[C@H]2C(=O)NC2(CCC2)C(=O)N(C)[C@@H](C2CCCC2)C(=O)N(C)[C@H](C(=O)N(C)C)CC(=O)N1C [PP1266]
NRAS/KRAS (ratio of KD value for GDP-bound NRAS wild-type protein to KD value for KRAS) ([1]; SPR): A (a compound having 10 or more and less than 20 is denoted as A) | HRAS/KRAS (ratio of KD value for GDP-bound HRAS wild-type protein to KD value for KRAS) ([2]; SPR): A (a compound having 10 or more and less than 20 is denoted as A) | Kd [3, 5]: 0.045 nM | IC50 [4, 6]: 12.2 nM

CCO[C@@H]1C[C@H]2C(=O)NC3(CC(F)(F)C3)C(=O)N(C)[C@@H](C3CCCC3)C(=O)N(C)C(C(C)C)CC(=O)N(C)[C@@H](CC3CC3)C(=O)N[C@@H]([C@@H](C)CC)C(=O)N(C)CC(=O)N(C)[C@H]3C/C=C\CCN(C3=O)[C@@H](Cc3ccc(C(F)(F)F)cc3)C(=O)N(C)CC(=O)N[C@@H](CCc3cc(F)c(C(F)(F)F)c(F)c3)C(=O)N2C1 (some centres unmarked) [PP1598]
NRAS/KRAS (ratio of KD value for GDP-bound NRAS wild-type protein to KD value for KRAS) ([1]; SPR): A (a compound having 10 or more and less than 20 is denoted as A) | HRAS/KRAS (ratio of KD value for GDP-bound HRAS wild-type protein to KD value for KRAS) ([2]; SPR): A (a compound having 10 or more and less than 20 is denoted as A) | Kd [3, 5]: 0.76 nM | IC50 [4, 6]: 36.6 nM

CCO[C@@H]1C[C@H]2C(=O)NC3(CCC3)C(=O)N(C)[C@@H](C3CCCC3)C(=O)N(CC)[C@H](C(=O)N3CCOCC3)CC(=O)N(C)[C@@H](CC)C(=O)N[C@@H]([C@@H](C)CC)C(=O)N(C)CC(=O)N(C)[C@H]3CCCCCN(C3=O)[C@@H](Cc3ccc(F)cc3)C(=O)N(C)CC(=O)N[C@@H](CCc3cc(F)c(C(F)(F)F)c(F)c3)C(=O)N2C1 [PP0905]
NRAS/KRAS (ratio of KD value with respect to NRAS to KD value with respect to KRAS) [1, 8]: B (a compound having 3 or more and less than 10 is denoted as B) | HRAS/KRAS (ratio of KD value with respect to HRAS to KD value with respect to KRAS) [2, 9]: B (a compound having 3 or more and less than 10 is denoted as B) | Kd [3, 5]: 0.79 nM | IC50 [4]: 92 nM

CCCN1C(=O)[C@@H]2CCN2C(=O)[C@H](C)N(C)C(=O)[C@H]([C@@H](C)CC)NC(=O)[C@H](CC(C)C)N(C)C(=O)C[C@@H](C(=O)N(C)C)N(C)C(=O)[C@H](C2CCCC2)N(C)C(=O)C2(CCC2)NC(=O)[C@@H]2CCCN2C(=O)[C@H](CCc2ccc(C(F)(F)F)c(Cl)c2)NC(=O)CN(C)C(=O)[C@@H]1COCCC(C)C [PP1820, (3S,9S,12S,17S,20S,23S,27S,30S,36S)-3-[2-[3-chloro-4-(trifluoromethyl)phenyl]ethyl]30-cyclopentyl-23-isobutyl-9-(isopentyloxymethyl)-N,N,7,17,18,24,28,31-octamethyl-20-[(1S)-1-methylpropyl]-2,5,8,11,16,19,22,25,29,32,35-undecaoxo-10-propyl-spiro[1,4,7,10,15,18,21,24,28,31,34-undecazatricyclo[34.3.0.012,15]nonatriacontane-33,1′-cyclobutane]-27-carboxamide] ([NMeL]I[NMeA][Aze][X4][Sar][hPhe(3-Cl-4-CF3)]P[Ac4c][NMeGly(cPent)][NMeD]-NMe2; lactam N-11)
NRAS/KRAS (ratio of KD value for NRAS to KD value for KRAS) [1, 8]: C (A compound having a KD ratio of 0.1 or more and less than 3 is denoted as C) | HRAS/KRAS (ratio of KD value for HRAS to KD value for KRAS) [2, 9]: C (A compound having a KD ratio of 0.1 or more and less than 3 is denoted as C) | Kd [3, 10]: 0.6 nM

CCO[C@@H]1C[C@H]2C(=O)NC3(CCC3)C(=O)N(C)[C@@H](C3CCCC3)C(=O)N(C)[C@H](C(=O)N(C)C)CC(=O)N(C)[C@@H](CC3CCCC3)C(=O)N[C@@H]([C@@H](C)CC)C(=O)N(C)CC(=O)N(C)[C@H]3C/C=C\CCN(C3=O)[C@@H](Cc3ccc(C(F)(F)F)cc3)C(=O)N(C)CC(=O)N[C@@H](CCc3ccc(C(F)(F)F)c(OC)c3)C(=O)N2C1 [PP1248]
Kd [3]: 0.069 nM | IC50 [4, 6]: 7.3 nM

CCCN1C(=O)CN(C)C(=O)CN(C)C(=O)[C@H]([C@@H](C)CC)NC(=O)[C@@H]2CCCCOc3ccc(cc3)C[C@H]1C(=O)N(C)CC(=O)N[C@@H](CCc1cc(F)c(C(F)(F)F)c(F)c1)C(=O)N1C[C@H](OCC)C[C@H]1C(=O)NC1(CCCC1)C(=O)N(C)[C@@H](C1CCCC1)C(=O)N(C)[C@H](C(=O)N(C)C)CC(=O)N2C [PP0894]
NRAS/KRAS (ratio of KD value with respect to NRAS to KD value with respect to KRAS) [1, 8]: C (A compound having a KD ratio of 0.1 or more and less than 3 is denoted as C) | HRAS/KRAS (ratio of KD value with respect to HRAS to KD value with respect to KRAS) [2, 9]: C (A compound having a KD ratio of 0.1 or more and less than 3 is denoted as C) | Kd [3, 5]: 0.0088 nM

CCC[C@H]1C(=O)N[C@@H]([C@@H](C)CC)C(=O)N(C)CC(=O)N(C)[C@H]2C/C=C\CCN(C2=O)[C@@H](Cc2ccc(C(F)(F)F)cc2)C(=O)N(C)CC(=O)N[C@@H](CCc2cc(F)c(C(F)(F)F)c(F)c2)C(=O)N2C[C@H](OCC)C[C@H]2C(=O)NC2(CC(C)(C)C2)C(=O)N(C)[C@@H](CC(C)(C)C)C(=O)N(C)C(C(=O)N(C)C)CC(=O)N1C (some centres unmarked) [PP2730]
NRAS/KRAS (ratio of KD value with respect to GDP-bound NRAS wild-type protein to KD value with respect to KRAS) ([1]; class symbols): A (a compound having 10 or more and less than 20 is denoted as A) | HRAS/KRAS (ratio of KD value with respect to GDP-bound HRAS wild-type protein to KD value with respect to KRAS) ([2]; class symbols): A (a compound having 10 or more and less than 20 is denoted as A) | Kd [3, 7]: 0.065 nM

CCC[C@H]1C(=O)N[C@@H]([C@@H](C)CC)C(=O)N(C2CC2)CC(=O)N(C)[C@H]2C/C=C\CCN(C2=O)[C@@H](Cc2ccc(C)cc2)C(=O)N(C)CC(=O)N[C@@H](CCc2cc(F)c(C(F)(F)F)c(F)c2)C(=O)N2C[C@H](OCC)C[C@H]2C(=O)N(C)C2(CCC2)C(=O)N(C)[C@@H](C2CCCC2)C(=O)N(C)[C@H](C(=O)N2CCCCC2)CC(=O)N1C [PP3111, (2S,8S,12R,14S,20S,23S,27S,30S,36S,38Z)-20-cyclopentyl-32-cyclopropyl-8-[2-[3,5-difluoro-4-(trifluoromethyl)phenyl]ethyl]-12-ethoxy-4,16,19,22,26,35-hexamethyl-30-[(1S)-1-methylpropyl]-23-(piperidine-1-carbonyl)-27-propyl-2-(p-tolylmethyl)spiro[1,4,7,10,16,19,22,26,29,32,35-undecazatricyclo[34.5.1.0^10,14]dotetracont-38-ene-17,1′-cyclobutane]-3,6,9,15,18,21,25,28,31,34,42-undecone]
NRAS/KRAS (ratio of KD value with respect to GDP-bound NRAS wild-type protein to KD value with respect to KRAS) [1, 11]: A (a compound having 10 or more and less than 20 is denoted as A) | HRAS/KRAS (ratio of KD value with respect to GDP-bound HRAS wild-type protein to KD value with respect to KRAS) [2, 11]: A (a compound having 10 or more and less than 20 is denoted as A) | Kd [3, 10]: 4.8 nM

CCCN1C(=O)CN(C)C(=O)CN(C)C(=O)[C@H]([C@@H](C)CC)NC(=O)[C@@H]2CCCCCCC[C@@H](NC(=O)[C@@H]3C[C@@H](OCC)CN3C(=O)[C@H](CCc3cc(F)c(C(F)(F)F)c(F)c3)NC(=O)CN(C)C(=O)[C@@H]1Cc1ccc(C(F)(F)F)cc1)C(=O)N(C)[C@@H](C1CCCC1)C(=O)N(C)[C@H](C(=O)N(C)C)CC(=O)N2C [PP0925]
NRAS/KRAS (ratio of KD value with respect to NRAS to KD value with respect to KRAS) [1, 8]: A (a compound having 10 or more and less than 20 is denoted as A) | HRAS/KRAS (ratio of KD value with respect to HRAS to KD value with respect to KRAS) [2, 9]: B (a compound having 3 or more and less than 10 is denoted as B) | Kd [3, 5]: 1.1 nM
